In patent publication US9493446B2, “Orexin receptor antagonists which are [ortho bi-(hetero-)aryl]-[2-(meta bi-(hetero-)aryl)-pyrrolidin-1-yl]-methanone derivatives” (Actelion Pharmaceuticals Ltd, priority 2012, dated 2016):
Where two headings read alike, the source gives them in different places.

Key:
human orexin-2 receptor = human orexin-2 receptor (Homo sapiens (Human), UniProt O43614); experiment: Intracellular calcium measurement (FLIPR), CHO cells expressing human orexin-2 receptor, 3 nM orexin-A; assay type: cell-based; settings: read-out: IC50 OX2
Sequence of human orexin-2 receptor (O43614 whole entry): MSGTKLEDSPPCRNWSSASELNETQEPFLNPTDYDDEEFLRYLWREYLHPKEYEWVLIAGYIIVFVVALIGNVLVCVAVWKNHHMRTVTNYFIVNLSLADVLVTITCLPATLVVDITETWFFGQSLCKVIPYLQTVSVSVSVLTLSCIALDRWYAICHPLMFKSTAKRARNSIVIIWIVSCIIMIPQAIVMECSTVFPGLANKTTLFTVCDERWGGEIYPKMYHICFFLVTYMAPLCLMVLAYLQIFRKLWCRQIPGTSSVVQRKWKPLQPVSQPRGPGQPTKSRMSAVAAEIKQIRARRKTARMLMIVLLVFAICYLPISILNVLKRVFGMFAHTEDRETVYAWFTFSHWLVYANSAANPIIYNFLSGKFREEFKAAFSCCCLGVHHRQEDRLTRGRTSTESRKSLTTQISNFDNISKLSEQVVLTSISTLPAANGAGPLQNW
Protocol: (§1) In Vitro Assay: Intracellular Calcium Measurements:
(§2) Chinese hamster ovary (CHO) cells expressing the human orexin-1 receptor and the human orexin-2 receptor, respectively, are grown in culture medium (Ham F-12 with L-Glutamine) containing 300 μg/mL G418, 100 U/mL penicillin, 100 μg/mL streptomycin and 10% heat inactivated fetal calf serum (FCS). The cells are seeded at 20,000 cells/well into 384-well black clear bottom sterile plates (Greiner). The seeded plates are incubated overnight at 37° C. in 5% CO2.
(§3) Human orexin-A as an agonist is prepared as 1 mM stock solution in MeOH: water (1:1), diluted in HBSS containing 0.1% bovine serum albumin (BSA), NaHCO3: 0.375 g/L and 20 mM HEPES for use in the assay at a final concentration of 3 nM.
(§4) Antagonists are prepared as 10 mM stock solution in DMSO, then diluted in 384-well plates using DMSO followed by a transfer of the dilutions into in HBSS containing 0.1% bovine serum albumin (BSA), NaHCO3: 0.375 g/L and 20 mM HEPES. On the day of the assay, 50 μL of staining buffer (HBSS containing 1% FCS, 20 mM HEPES, NaHCO3: 0.375 g/L, 5 mM probenecid (Sigma) and 3 μM of the fluorescent calcium indicator fluo-4 AM (1 mM stock solution in DMSO, containing 10% pluronic) is added to each well. The 384-well cell-plates are incubated for 50 min at 37° C. in 5% CO2 followed by equilibration at rt for 30 min before measurement.
(§5) Within the Fluorescent Imaging Plate Reader (FLIPR Tetra, Molecular Devices), antagonists are added to the plate in a volume of 10 μL/well, incubated for 120 min and finally 10 μL/well of agonist is added. Fluorescence is measured for each well at 1 second intervals, and the height of each fluorescence peak is compared to the height of the fluorescence peak induced by 3 nM orexin-A with vehicle in place of antagonist. […] Optimized conditions were achieved by adjustment of pipetting speed and cell splitting regime. The calculated IC50 values may fluctuate depending on the daily cellular assay performance. Fluctuations of this kind are known to those skilled in the art.

orexin-1 = orexin-1 (Homo sapiens (Human), UniProt O43613); experiment: Intracellular calcium measurement (FLIPR), CHO cells expressing human orexin-1 receptor, 3 nM orexin-A; assay type: cell-based; settings: read-out: IC50 OX1
Sequence of orexin-1 (O43613 whole entry): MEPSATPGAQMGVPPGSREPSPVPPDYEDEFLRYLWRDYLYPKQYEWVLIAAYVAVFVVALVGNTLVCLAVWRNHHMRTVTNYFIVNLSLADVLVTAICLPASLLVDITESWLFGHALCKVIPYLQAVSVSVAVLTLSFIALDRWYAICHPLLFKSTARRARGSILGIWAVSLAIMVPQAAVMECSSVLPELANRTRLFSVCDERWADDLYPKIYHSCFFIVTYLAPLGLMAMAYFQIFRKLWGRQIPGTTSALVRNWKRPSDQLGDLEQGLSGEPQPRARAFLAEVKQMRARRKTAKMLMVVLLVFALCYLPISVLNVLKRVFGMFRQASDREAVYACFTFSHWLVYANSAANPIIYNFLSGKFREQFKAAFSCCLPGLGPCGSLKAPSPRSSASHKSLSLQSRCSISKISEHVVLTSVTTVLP
Protocol: as §1, §2, §3, §4, §5

[1] = CHO cells expressing human orexin-2 receptor, FLIPR, 3 nM orexin-A, geometric mean if determined several times
[2] = CHO cells expressing human orexin-1 receptor, FLIPR, 3 nM orexin-A, geometric mean if determined several times

Work on Cc1ccc(C(=O)N2CCC[C@H]2c2nc(-c3ccccc3C(F)(F)F)no2)c(-n2nccn2)c1 [compound 180, (4-Methyl-2-[1,2,3]triazol-2-yl-phenyl)-{(S)-2-[3-(2-trifluoromethyl-phenyl)-[1,2,4]oxadiazol-5-yl]-pyrrolidin-1-yl}-methanone] yielded an IC50 (human orexin-2 receptor; [1]) of 126 nM and an IC50 (orexin-1; [2]) of 183 nM.

Cc1cc(C)c(-n2nccn2)c(C(=O)N2CCC[C@H]2c2nc(-c3cccc(Cl)c3C)no2)c1 [compound 119] showed an IC50 (human orexin-2 receptor) of 24 nM and an IC50 (orexin-1; [2]) of 188 nM.

COc1ccc(-c2ccccc2)c(C(=O)N2CCC[C@H]2c2nc(-c3ccccc3OC(F)(F)F)no2)c1 [compound 152, (4-Methoxy-biphenyl-2-yl)-{(S)-2-[3-(2-trifluoromethoxy-phenyl)-[1,2,4]oxadiazol-5-yl]-pyrrolidin-1-yl}-methanone] was tested, and the IC50 (human orexin-2 receptor; [1]) was 35 nM and the IC50 (orexin-1; [2]) was 9 nM.

For Cc1ccc(-n2nccn2)c(C(=O)N2CCC[C@H]2c2nc(-c3c(C)cccc3Cl)no2)c1 [compound 24], the IC50 (human orexin-2 receptor; [1]) was 104 nM and the IC50 (orexin-1; [2]) was 472 nM.

With Cc1cccc(-c2oc(C)nc2C(=O)N2CCC[C@H]2c2nc(-c3cccc(Cl)c3C)no2)c1 [compound 91] the IC50 (human orexin-2 receptor; [1]) was 91 nM and the IC50 (orexin-1; [2]) was 104 nM.

COc1ccc(C)cc1-c1nc([C@@H]2CCCN2C(=O)c2ccc(Cl)cc2-n2nccn2)no1 [compound 381] showed an IC50 (human orexin-2 receptor; [1]) of 28 nM and an IC50 (orexin-1; [2]) of 136 nM.

CCc1cnc(-c2noc([C@@H]3CCCN3C(=O)c3cc(C)ccc3-n3nccn3)n2)cc1C [compound 61, {(S)-2-[3-(5-Ethyl-4-methyl-pyridin-2-yl)-[1,2,4]oxadiazol-5-yl]-pyrrolidin-1-yl}-(5-methyl-2-[1,2,3]triazol-2-yl-phenyl)-methanone] gave an IC50 (human orexin-2 receptor; [1]) of 271 nM and an IC50 (orexin-1; [2]) of 1480 nM.

CCOc1ncccc1-c1noc([C@@H]2CCCN2C(=O)c2cc(OC)c(F)cc2-n2nccn2)n1 [compound 223, {(S)-2-[3-(2-Ethoxy-pyridin-3-yl)-[1,2,4]oxadiazol-5-yl]-pyrrolidin-1-yl}-(4-fluoro-5-methoxy-2-[1,2,3]triazol-2-yl-phenyl)-methanone] gave an IC50 (human orexin-2 receptor; [1]) of 17 nM and an IC50 (orexin-1; [2]) of 253 nM.

CCOc1ncccc1-c1noc([C@@H]2CCCN2C(=O)c2cc(OC)c(Cl)cc2-n2nccn2)n1 [compound 284] was tested, and the IC50 (human orexin-2 receptor; [1]) was 5 nM and the IC50 (orexin-1) was 32 nM.

Cc1ccc(-n2nccn2)c(C(=O)N2CCC[C@H]2c2nc(-c3ncccc3C)no2)c1 [compound 83, {(S)-2-[3-(3-Methyl-pyridin-2-yl)-[1,2,4]oxadiazol-5-yl]-pyrrolidin-1-yl}-(5-methyl-2-[1,2,3]triazol-2-yl-phenyl)-methanone] gave an IC50 (human orexin-2 receptor; [1]) of 302 nM and an IC50 (orexin-1; [2]) of 3470 nM.

COc1cccc(-c2nccnc2C(=O)N2CCC[C@H]2c2nc(-c3cccc(Cl)c3C)no2)c1 [compound 128] was tested, and the IC50 (human orexin-2 receptor; [1]) was 181 nM and the IC50 (orexin-1) was 200 nM.

Work on COc1ccc(C)c(-c2nc([C@@H]3CCCN3C(=O)c3cc(C)c(C)cc3-n3nccn3)no2)c1 [compound 383, (4,5-Dimethyl-2-[1,2,3]triazol-2-yl-phenyl)-{(S)-2-[5-(5-methoxy-2-methyl-phenyl)-[1,2,4]oxadiazol-3-yl]-pyrrolidin-1-yl}-methanone] yielded an IC50 (human orexin-2 receptor; [1]) of 4 nM and an IC50 (orexin-1; [2]) of 30 nM.

Cc1cc(C(=O)N2CCC[C@H]2c2nc(-c3ccccc3C(F)(F)F)no2)c(-n2nccn2)cc1C [compound 181, (4,5-Dimethyl-2-[1,2,3]triazol-2-yl-phenyl)-{(S)-2-[3-(2-trifluoromethyl-phenyl)-[1,2,4]oxadiazol-5-yl]-pyrrolidin-1-yl}-methanone] showed an IC50 (human orexin-2 receptor; [1]) of 37 nM and an IC50 (orexin-1; [2]) of 86 nM.

With “[3-(2-Chloro-phenyl)-5-methyl-isoxazol-4-yl]-{(S)-2-[3-(2-trifluoromethoxy-phenyl)-[1,2,4]oxadiazol-5-yl]-pyrrolidin-1-yl}-methanone [Reference compound 10, reference compound]” the IC50 (human orexin-2 receptor; [1]) was 150 nM and the IC50 (orexin-1; [2]) was 1040 nM.

Compound COc1cc(C)cc(-c2nc([C@@H]3CCCN3C(=O)c3ccc(Cl)cc3-n3nccn3)no2)c1 [compound 418] has an IC50 (human orexin-2 receptor; [1]) of 25 nM and an IC50 (orexin-1) of 85 nM.

For CCOc1c(F)cccc1-c1nnc([C@@H]2CCCN2C(=O)c2cc(C)ccc2-n2nccn2)o1 [Example 449, {(S)-2-[5-(2-Ethoxy-3-fluoro-phenyl)-[1,3,4]oxadiazol-2-yl]-pyrrolidin-1-yl}-(5-methyl-2-[1,2,3]triazol-2-yl-phenyl)-methanone], the IC50 (human orexin-2 receptor; [1]) was 236 nM and the IC50 (orexin-1; [2]) was 280 nM.

For Cc1ccc(-n2nccn2)c(C(=O)N2CCC[C@H]2c2nc(-c3ccccc3OC(F)(F)F)no2)n1 [compound 159, (6-Methyl-3-[1,2,3]triazol-2-yl-pyridin-2-yl)-{(S)-2-[3-(2-trifluoromethoxy-phenyl)-[1,2,4]oxadiazol-5-yl]-pyrrolidin-1-yl}-methanone], the IC50 (human orexin-2 receptor; [1]) was 71 nM and the IC50 (orexin-1; [2]) was 88 nM.

Cc1c(Cl)cccc1-c1noc([C@@H]2CCCN2C(=O)c2cc(C(F)(F)F)ccc2-n2nccn2)n1 [compound 97] was tested, and the IC50 (human orexin-2 receptor; [1]) was 194 nM and the IC50 (orexin-1; [2]) was 568 nM.

With Cc1ccc(-n2nccn2)c(C(=O)N2CCC[C@H]2c2nc(-c3cccnc3C)no2)c1 [compound 78, {(S)-2-[3-(2-Methyl-pyridin-3-yl)-[1,2,4]oxadiazol-5-yl]-pyrrolidin-1-yl}-(5-methyl-2-[1,2,3]triazol-2-yl-phenyl)-methanone] the IC50 (human orexin-2 receptor; [1]) was 29 nM and the IC50 (orexin-1; [2]) was 2290 nM.

For Cc1ccc(-n2nccn2)c(C(=O)N2CCC[C@H]2c2cc(-c3ccccc3)on2)c1 [compound 430, (5-Methyl-2-[1,2,3]triazol-2-yl-phenyl)-[(S)-2-(5-phenyl-isoxazol-3-yl)-pyrrolidin-1-yl]-methanone], the IC50 (human orexin-2 receptor; [1]) was 51 nM and the IC50 (orexin-1; [2]) was 359 nM.

Cc1ccc(C(=O)N2CCC[C@H]2c2noc(-c3cccc(C)c3C)n2)c(-n2nccn2)c1 [compound 391, {(S)-2-[5-(2,3-Dimethyl-phenyl)-[1,2,4]oxadiazol-3-yl]-pyrrolidin-1-yl}-(4-methyl-2-[1,2,3]triazol-2-yl-phenyl)-methanone] was tested, and the IC50 (human orexin-2 receptor; [1]) was 14 nM and the IC50 (orexin-1; [2]) was 68 nM.

For CCOc1ncccc1-c1noc([C@@H]2CCCN2C(=O)c2cc(C)ccc2-c2ccccn2)n1 [compound 217, {(S)-2-[3-(2-Ethoxy-pyridin-3-yl)-[1,2,4]oxadiazol-5-yl]-pyrrolidin-1-yl}-(5-methyl-2-pyridin-2-yl-phenyl)-methanone], the IC50 (human orexin-2 receptor; [1]) was 14 nM and the IC50 (orexin-1; [2]) was 40 nM.

“{(S)-2-[3-(3-Chloro-phenyl)-[1,2,4]oxadiazol-5-yl]-pyrrolidin-1-yl}-furan-3-yl-methanone [Reference compound 5, reference compound]” was tested, and the IC50 (human orexin-2 receptor; [1]) was 554 nM and the IC50 (orexin-1; [2]) was 403 nM.

CCOc1ncccc1-c1nnc([C@@H]2CCCN2C(=O)c2ccc(Cl)cc2-n2nccn2)[nH]1 [compound 481] showed an IC50 (human orexin-2 receptor; [1]) of 21 nM and an IC50 (orexin-1; [2]) of 26 nM.

For CCOc1ccccc1-c1noc([C@@H]2CCCN2C(=O)c2cc(OC)ccc2-n2nccn2)n1 [compound 261, {(S)-2-[3-(2-Ethoxy-phenyl)-[1,2,4]oxadiazol-5-yl]-pyrrolidin-1-yl}-(5-methoxy-2-[1,2,3]triazol-2-yl-phenyl)-methanone], the IC50 (human orexin-2 receptor; [1]) was 9 nM and the IC50 (orexin-1; [2]) was 26 nM.

With Cc1c(F)cccc1-c1noc([C@@H]2CCCN2C(=O)c2ccc(Cl)cc2-n2nccn2)n1 [compound 294] the IC50 (human orexin-2 receptor; [1]) was 17 nM and the IC50 (orexin-1; [2]) was 155 nM.

For Cc1cccc(-c2ocnc2C(=O)N2CCC[C@@]2(C)c2nc(-c3ccccc3)no2)c1 [compound 539, [(S)-2-Methyl-2-(3-phenyl-[1,2,4]oxadiazol-5-yl)-pyrrolidin-1-yl]-(5-m-tolyl-oxazol-4-yl)-methanone], the IC50 (human orexin-2 receptor; [1]) was 1780 nM and the IC50 (orexin-1; [2]) was 560 nM.

Work on COc1cccc(-c2nc([C@@H]3CCCN3C(=O)c3ccc(Cl)cc3-n3nccn3)no2)c1C [compound 362] yielded an IC50 (human orexin-2 receptor) of 100 nM and an IC50 (orexin-1; [2]) of 171 nM.

Cc1ccc(-c2ccccc2)c(C(=O)N2CCC[C@H]2c2nc(-c3cccc(Cl)c3C)no2)c1 [compound 88] showed an IC50 (human orexin-2 receptor; [1]) of 11 nM and an IC50 (orexin-1; [2]) of 49 nM.

Work on COc1cccc(-c2nnc([C@@H]3CCCN3C(=O)c3cc(C)ccc3-n3nccn3)[nH]2)c1 [compound 513, {(S)-2-[5-(3-Methoxy-phenyl)-4H-[1,2,4]triazol-3-yl]-pyrrolidin-1-yl}-(5-methyl-2-[1,2,3]triazol-2-yl-phenyl)-methanone] yielded an IC50 (human orexin-2 receptor; [1]) of 181 nM and an IC50 (orexin-1; [2]) of 812 nM.

In the case of COc1c(F)cccc1-c1nc([C@@H]2CCCN2C(=O)c2ccccc2-n2nccn2)no1 [compound 334, {(S)-2-[5-(3-Fluoro-2-methoxy-phenyl)-[1,2,4]oxadiazol-3-yl]-pyrrolidin-1-yl}-(2-[1,2,3]triazol-2-yl-phenyl)-methanone], the IC50 (human orexin-2 receptor; [1]) is reported as 12 nM and the IC50 (orexin-1; [2]) is reported as 320 nM.
